SMILES strings stand for the structures. In brackets after ≈: the same amount, converted by molar mass.

The subject of this assay is P388. The assay is described as follows: Cytotoxicity against mouse P388 cells. The assay is classed as functional, cell-based.
In the case of `CC(=O)O[C@@H]1C[C@H]2C(C)(C)C(=O)C=C[C@]2(C)[C@H]2C(=O)C[C@@]3(C)[C@H](c4ccoc4)OC(=O)[C@H]4O[C@]43[C@@]21C`, 3 µg/mL (≈ 6.04 µM) corresponded to half-maximal inhibition (IC50).
`CC(=O)O[C@@H]1C[C@H]2C(C)(C)C(=O)C=C[C@]2(C)[C@H]2CC[C@@]3(C)[C@H](c4ccoc4)OC(=O)[C@H]4O[C@]43[C@@]21C` [GEDUNIN] gave an IC50 of 3.3 µg/mL (≈ 6.84 µM).
In the case of `CC1(C)C(=O)C=C[C@]2(C)[C@H]3[C@H](O)C[C@@]4(C)[C@H](c5ccoc5)OC(=O)[C@H]5O[C@]54[C@]3(C)[C@H](O)C[C@@H]12`, the IC50 is over 100 µg/mL.
The same measure for `CC(=O)O[C@@H]1C[C@H]2C(C)(C)C(=O)C=C[C@]2(C)[C@H]2[C@H](O)C[C@@]3(C)[C@H](c4ccoc4)OC(=O)[C@H]4O[C@]43[C@@]21C`: 71 µg/mL (≈ 142 µM).
For `CC(=O)O[C@@H]1C[C@@]2(C)[C@H](c3ccoc3)OC(=O)[C@H]3O[C@]32[C@@]2(C)[C@H]1[C@@]1(C)C=CC(=O)C(C)(C)[C@@H]1C[C@H]2OC(C)=O` the value was 63 µg/mL (≈ 117 µM); for `CC1(C)C(=O)C=C[C@]2(C)[C@H]3[C@@H](O)C[C@@]4(C)[C@H](c5ccoc5)OC(=O)[C@H]5O[C@]54[C@]3(C)[C@H](O)C[C@@H]12`, 7.8 µg/mL (≈ 17.1 µM); for `CC1(C)C(=O)C=C[C@]2(C)[C@H]3CC[C@@]4(C)[C@H](c5ccoc5)OC(=O)[C@H]5O[C@]54[C@]3(C)[C@H](O)C[C@@H]12` [DEACETYLGEDUNIN], 4.5 µg/mL (≈ 10.2 µM).
The same measure for `CC(=O)O[C@@H]1C[C@H]2C(C)(C)C(=O)C=C[C@]2(C)[C@H]2[C@@H](O)C[C@@]3(C)[C@H](c4ccoc4)OC(=O)[C@H]4O[C@]43[C@@]21C`: 5.4 µg/mL (≈ 10.8 µM).
As to `CC(=O)O[C@H]1C[C@@]2(C)[C@H](c3ccoc3)OC(=O)[C@H]3O[C@]32[C@@]2(C)[C@H]1[C@@]1(C)C=CC(=O)C(C)(C)[C@@H]1C[C@H]2OC(C)=O`, the IC50 was 3.8 µg/mL (≈ 7.03 µM).

The values above are taken from ChEMBL document CHEMBL1158057, “Hydroxylated gedunin derivatives from Cedrela sinensis” (J Nat Prod, 2006).
